The subject of the assay is DBA/2 mice. The assay is described as follows: Auditory evoked potential test in DBA/2 mice. Format: in vivo, mouse. The note with it: s.c.; male DBA/2 mice; TC ratio vs baseline, p<0.05. From the text:
A number of compounds according to the invention have proven active in the auditory evoked potential test. […] The DBA/2 mouse has proven to be a useful model of schizophrenia-like sensory processing deficits. Human studies of nicotine effects on sensory processing predicted the results in the DBA/2 mouse and studies with the selective alpha 7 agonist GTS-21 in DBA/2 mice, predicted the effects in humans. This model of sensory gating ability therefore has high translational relevance.
The vehicle used was 20% hydroxypropyl-β-cyclodextrin (HP-β-CD) in water, acidified slightly with a few drops of tartaric acid. Both drug solution and vehicle were administered s.c. in a volume of 4 ml/kg. […]
The ratio of the P20-N40 amplitude of response to the second (test) stimulus and the first (conditioning) stimulus provides a measure of sensory inhibition; the ratio of the test to the conditioning amplitude (TC ratio) is 0.5 or less for most rodent strains and normal humans. […] The maximum negativity between 20 and 60 ms after the two stimuli was selected as the N40 wave and measured relative to the preceding positivity, the P20 wave. The amplitude from the P20 to the N40 wave was determined for both the conditioning and the test response. […]
All data were analyzed by multivariate analysis of variance with repeated measures. […]

Take `Cc1cc(-c2sc(N3C[C@@H](C)O[C@@H](C)C3)nc2CNC(=O)CC2CC2)cc(C)n1` [Compound 1, N-[[2-[(2R,6S)-2,6-dimethyl-4-morpholinyl]-5-(2,6-dimethyl-4-pyridinyl)-4-thiazolyl]methyl]-cyclopropaneacetamide]: the lowest active dose was 0.63 mg/kg.

Regarding `Cc1cc(-c2sc(N3C[C@@H](C)O[C@@H](C)C3)nc2CNC(=O)c2conc2C)cc(C)n1` [Compound 18, N-[[2-[(2R,6S)-2,6-dimethyl-4-morpholinyl]-5-(2,6-dimethyl-4-pyridinyl)-4-thiazolyl]methyl]-3-methyl-4-isoxazolecarboxamide], the lowest active dose is reported as 0.04 mg/kg.
